Assay [1] concerns the target Ras GEF SOS (Son of Sevenless) (Homo sapiens, UniProt Q07889). The experiment in a line: SOS-mediated nucleotide exchange on Ras (BODIPY-GDP fluorescence). Type of assay: biochemical. As to conditions: SOS-mediated exchange of BODIPY-GDP for GTP on Ras. The method in brief: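 Ras loaded with BODIPY-GDP was mixed in buffer with test compound, then GTP and SOS. Fluorescence change from labeled GDP/GTP exchange was followed over time, and rates came from single-exponential fits. EC50 came from a four-parameter fit of mean rate against compound concentration.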

A further assay deals with T1, Son of Sevenless (SOS) (Homo sapiens, UniProt Q07889).
T1 sequence (Q07889 564-1049 limits assumed): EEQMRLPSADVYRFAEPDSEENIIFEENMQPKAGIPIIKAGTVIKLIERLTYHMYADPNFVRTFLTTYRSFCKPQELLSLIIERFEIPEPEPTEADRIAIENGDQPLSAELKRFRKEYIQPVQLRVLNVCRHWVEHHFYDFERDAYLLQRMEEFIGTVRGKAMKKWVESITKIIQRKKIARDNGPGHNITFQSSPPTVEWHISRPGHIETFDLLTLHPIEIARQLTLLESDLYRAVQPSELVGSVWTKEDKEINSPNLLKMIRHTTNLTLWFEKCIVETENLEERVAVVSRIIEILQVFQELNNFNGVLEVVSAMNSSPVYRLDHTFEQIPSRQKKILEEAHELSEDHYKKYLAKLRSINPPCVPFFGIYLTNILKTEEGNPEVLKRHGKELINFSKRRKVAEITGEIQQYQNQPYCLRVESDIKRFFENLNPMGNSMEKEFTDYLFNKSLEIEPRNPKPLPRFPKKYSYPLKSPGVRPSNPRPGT
The experiment in a line: Binding to SOS, fluorescence polarization anisotropy (FPA) probe displacement. As to conditions: displacement of FITC-conjugated probe (Example 285), affinity calculated from IC50. The method, then:
Compounds of the present invention were tested for their ability to bind to the Ras guanine exchange factor (GEF) Son of Sevenless (SOS). Binding to SOS was measured using a Fluorescence polarization anisotropy (FPA) assay that assesses the ability of a test compound to displace a fluorescent FITC-conjugated compound (Example 285). Briefly, the labeled probe compound is incubated with SOS in buffer. Changes in anisotropy indicative of displacement of the labeled probe for a test compound are assessed over a dose range of test compound. Data was analyzed by plotting fluorescence anisotropy values as a function of compound concentration. IC50 values were determined using a four-parameter dose-response (variable slope) and binding affinities were calculated from this IC50 value. This assay is performed in a method analogous to the assay disclosed in: Burns, M. C.; Sun, Q.; Daniels, R. N.; Camper, D. V.; Kennedy, J. P.; Phan, J.; Olejniczak, E. O.; Lee, T.; Waterson, A. G.; Rossanese, O. W.; Fesik, S. W. “Approach for targeting Ras with small molecules that activate SOS-mediated nucleotide exchange” Proc. Natl. Acad. Sci. 2014; 11(9): 3401-3406. PMCID: PMC3948241.

Structures are written as SMILES. Where a name gives a salt, the structure may show the parent alone. Some results are limits rather than exact numbers.

In patent US10501421B1, “Substituted benzimidazoles as modulators of Ras signaling” (VANDERBILT UNIVERSITY, priority 2017, dated 2019) one finds EC50 and Ki data, which are given here for 25 compounds.

Chain of Ras GEF SOS (Son of Sevenless) (P01112 1-166 partner limits assumed, one chain of several): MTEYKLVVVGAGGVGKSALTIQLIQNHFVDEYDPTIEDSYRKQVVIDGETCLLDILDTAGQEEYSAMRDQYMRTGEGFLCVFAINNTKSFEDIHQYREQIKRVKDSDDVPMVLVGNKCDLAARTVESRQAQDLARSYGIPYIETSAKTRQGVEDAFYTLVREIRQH

With `Cc1cc(Cn2c(N3CCNCC3)nc3c(CC(=O)O)cc(Cl)cc32)cc(C)c1F` [Example 310, 2-(6-chloro-1-(4-fluoro-3,5-dimethylbenzyl)-2-(piperazin-1-yl)-1H-benzo[d]imidazol-4-yl)acetic acid], in assay [1], the EC50 was < 1 µM. For the same compound, at Son of Sevenless (SOS), the inhibition constant Ki was 0.5 to 1 µM.

With `NCCNc1nc2ccc(C(F)(F)F)cc2n1Cc1ccc(F)c(Cl)c1` [Example 72, N^1-(1-(3-chloro-4-fluorobenzyl)-6-(trifluoromethyl)-1H-benzo[d]imidazol-2-yl)ethane-1,2-diamine trifluoroacetate], the EC50 in assay [1] was 1 to 5 µM. Moreover, the Ki at Son of Sevenless (SOS) is 1 to 5 µM.

As to `COc1ccccc1-c1nc(C)cc2c1nc(N1CCNCC1)n2Cc1ccc(F)c(C)c1` [Example 228, 1-(4-fluoro-3-methylbenzyl)-4-(2-methoxyphenyl)-6-methyl-2-(piperazin-1-yl)-1H-imidazo[4,5-c]pyridine], the concentration for a half-maximal effect (EC50) in assay [1] fell in the range of 5 to 30 µM. Further, the Ki on Son of Sevenless (SOS) was > 5 µM.

Regarding `CCN(CC)Cc1cc(Cl)cc2c1nc(N1CCNCC1)n2Cc1ccc(F)c(Cl)c1` [Example 136, N-((6-chloro-1-(3-chloro-4-fluorobenzyl)-2-(piperazin-1-yl)-1H-benzo[d]imidazol-4-yl)methyl)-N-ethylethanamine trifluoroacetate], in assay [1], the EC50 is < 1 µM. The Ki on Son of Sevenless (SOS) is 1 to 5 µM.

The compound `Fc1ccc(Cn2c(N3CCNCC3)nc3ccc(C4CC4)cc32)cc1Cl` [Example 62, 1-(3-chloro-4-fluorobenzyl)-6-cyclopropyl-2-(piperazin-1-yl)-1H-benzo[d]imidazole trifluoroacetate] returned an EC50 in assay [1] of 5 to 30 µM. Besides, at Son of Sevenless (SOS), the inhibition constant (Ki) is > 5 µM.

Compound `CCCN1CC[C@@H](C(=O)c2ccccc2)C1c1cc(Cl)cc2c1nc(N1CCNCC1)n2Cc1cc(C)c(F)c(C)c1` (stereo in doubt) [Example 149, ((2S,3R)-2-(6-chloro-1-(4-fluoro-3,5-dimethylbenzyl)-2-(piperazin-1-yl)-1H-benzo[d]imidazol-4-yl)-1-propylpyrrolidin-3-yl)(phenyl)methanone trifluoroacetate] returned an EC50 in assay [1] of 5 to 30 µM. Also, the Ki on Son of Sevenless (SOS) is 1 to 5 µM.

As for `Cc1cc(NCCCN(C)C)c2nc(N3CCNCC3)n(Cc3cc(C)c(F)c(C)c3)c2c1` [Example 197, N^1-(1-(4-fluoro-3,5-dimethylbenzyl)-6-methyl-2-(piperazin-1-yl)-1H-benzo[d]imidazol-4-yl)-N^3,N^3-dimethylpropane-1,3-diamine trifluoroacetate], the EC50 in assay [1] was in the range of 1 to 5 µM. In addition, at Son of Sevenless (SOS), the Ki is 0.5 to 1 µM.

As for `Fc1cc(F)cc(Cn2c(N3CCNCC3)nc3c(-c4ccccc4F)cccc32)c1` [Example 90, 1-(3,5-difluorobenzyl)-4-(2-fluorophenyl)-2-(piperazin-1-yl)-1H-benzo[d]imidazole], the half-maximal effective concentration (EC50) in assay [1] is 1 to 5 µM. In addition, the Ki on Son of Sevenless (SOS) is 1 to 5 µM.

As to `Cc1cc2nc(N3CCC(N)CC3)n(Cc3ccc(F)c(Cl)c3)c2cc1C` [Example 294, 1-(1-(3-chloro-4-fluorobenzyl)-5,6-dimethyl-1-benzo[d]imidazol-2-yl)piperidin-4-amine], in assay [1], the EC50 lay within 5 to 30 µM. Further, the Ki at Son of Sevenless (SOS) is > 5 µM.

In assay [1], `Cc1cc2c(nc(N3CCNCC3)n2Cc2ccc(F)c(C)c2)c(Cl)n1` [Example 218, 4-chloro-1-(4-fluoro-3-methylbenzyl)-6-methyl-2-(piperazin-1-yl)-1H-imidazo[4,5-c]pyridine] displayed an EC50 of 5 to 30 µM. For the same compound, the Ki on Son of Sevenless (SOS) is > 5 µM.

With `Cc1cnc2nc(NCCN)n(Cc3ccc(F)c(Cl)c3)c2c1` [Example 246, N^1-(1-(3-chloro-4-fluorobenzyl)-6-methyl-1H-imidazo[4,5-b]pyridin-2-yl)ethane-1,2-diamine], in assay [1], the EC50 was 1 to 5 µM. On Son of Sevenless (SOS), the Ki was 1 to 5 µM.

In assay [1], `Cc1cc(Cn2c(N3CCNCC3)nc3c(N4CCCCC4)cc(Cl)cc32)cc(C)c1F` [Example 297, 6-chloro-1-(4-fluoro-3,5-dimethylbenzyl)-2-(piperazin-1-yl)-4-(piperidin-1-yl)-1H-benzo[d]imidazole] yielded an EC50 of 1 to 5 µM. Besides, the Ki at Son of Sevenless (SOS) is < 0.5 µM.

In turn, `Cc1cc2c(nc(N3CCNCC3)n2Cc2ccc(F)c(C)c2)c(-c2cccnc2C)n1` [Example 227, 1-(4-fluoro-3-methylbenzyl)-6-methyl-4-(2-methylpyridin-3-yl)-2-(piperazin-1-yl)-1H-imidazo[4,5-c]pyridine] yielded an EC50 in assay [1] of 1 to 5 µM. At Son of Sevenless (SOS), the Ki is > 5 µM.

Regarding `Cc1cc(Cn2c(NCCN)nc3c(N4CCC(N)CC4)cc(Cl)cc32)cc(C)c1F` [Example 298, N^1-(4-(4-aminopiperidin-1-yl)-6-chloro-1-(4-fluoro-3,5-dimethylbenzyl)-1H-benzo[d]imidazol-2-yl)ethane-1,2-diamine], the EC50 in assay [1] was < 1 µM. On Son of Sevenless (SOS), the Ki is < 0.5 µM.

With `Cc1cc(Cn2c(N3CCNCC3)nc3c(-c4ccc(CN)cc4)cc(Cl)cc32)cc(C)c1F` [Example 122, (4-(6-chloro-1-(4-fluoro-3,5-dimethylbenzyl)-2-(piperazin-1-yl)-1H-benzo[d]imidazol-4-yl)phenyl)methanamine trifluoroacetate], in assay [1], the EC50 was 1 to 5 µM. The inhibitory constant (Ki) at Son of Sevenless (SOS) was 0.5 to 1 µM.

Turning to `Cc1cc2nc(N3CCNC(=O)C3)n(Cc3cc(C)c(F)c(C)c3)c2cc1C` [Example 332, 4-(1-(4-fluoro-3,5-dimethylbenzyl)-5,6-dimethyl-1H-benzo[d]imidazol-2-yl)piperazin-2-one], in assay [1], the EC50 fell in the range of 5 to 30 µM. At Son of Sevenless (SOS), the Ki is > 5 µM.

For `Cc1cc2c(nc(N3CCNCC3)n2Cc2ccc(F)c(C)c2)c(-c2ccc(CN)cc2)n1` [Example 229, (4-(1-(4-fluoro-3-methylbenzyl)-6-methyl-2-(piperazin-1-yl)-1H-imidazo[4,5-c]pyridin-4-yl)phenyl)methanamine], the concentration for a half-maximal effect (EC50) in assay [1] was in the range of 1 to 5 µM. For the same compound, the Ki at Son of Sevenless (SOS) is > 5 µM.

In assay [1], `Cc1cc2c(nc(N3CCNCC3)n2Cc2ccc(F)c(C)c2)c(-c2ccccc2F)n1` [Example 217, 1-(4-fluoro-3-methylbenzyl)-4-(2-fluorophenyl)-6-methyl-2-(piperazin-1-yl)-1H-imidazo[4,5-c]pyridine] yielded an EC50 of 1 to 5 µM. On Son of Sevenless (SOS), the Ki was > 5 µM.

Take `Cc1cc2c(nc(N3CCNCC3)n2Cc2ccc(F)c(C)c2)c(CNC2CCCC2)n1` [Example 232, N-((1-(4-fluoro-3-methylbenzyl)-6-methyl-2-(piperazin-1-yl)-1H-imidazo[4,5-c]pyridin-4-yl)methyl)cyclopentanamine]: in assay [1], the EC50 is 5 to 30 µM. Besides, the Ki at Son of Sevenless (SOS) was > 5 µM.

Compound `Cc1cc2nc(NCCN)n(Cc3cccc(C(F)(F)F)c3)c2cc1C` [Example 33, N^1-(5,6-dimethyl-1-(3-(trifluoromethyl)benzyl)-1H-benzo[d]imidazol-2-yl)ethane-1,2-diamine trifluoroacetate] showed an EC50 in assay [1] of 1 to 5 µM. Moreover, the Ki on Son of Sevenless (SOS) is > 5 µM.

Take `Cc1cc2nc(NCCN)n(Cc3ccc(F)cc3)c2cc1C` [Example 22, N^1-(1-(4-fluorobenzyl)-5,6-dimethyl-1H-benzo[d]imidazol-2-yl)ethane-1,2-diamine trifluoroacetate]: the EC50 in assay [1] was in the range of 5 to 30 µM. At Son of Sevenless (SOS), the inhibition constant Ki was > 5 µM.

For `Cc1cc(OC2CCOC2)c2nc(N3CCNCC3)n(Cc3cc(C)c(F)c(C)c3)c2c1` (centres unmarked) [Example 204, 1-(4-fluoro-3,5-dimethylbenzyl)-6-methyl-2-(piperazin-1-yl)-4-((tetrahydrofuran-3-yl)oxy)-1H-benzo[d]imidazole], the EC50 in assay [1] is < 1 µM. Also, the Ki at Son of Sevenless (SOS) is 1 to 5 µM.

In assay [1], `Cc1cc2nc(N3CCNCC3)n(Cc3ccc(F)c(Cl)c3)c2cc1C` [Example 16, 1-(3-chloro-4-fluorobenzyl)-5,6-dimethyl-2-(piperazin-1-yl)-1H-benzo[d]imidazole trifluoroacetate] showed an EC50 of 1 to 5 µM. In addition, the Ki at Son of Sevenless (SOS) was 1 to 5 µM.

Turning to `NCCNc1nc2ccc(Cl)cc2n1Cc1ccc(F)c(Cl)c1` [Example 74, N^1-(6-chloro-1-(3-chloro-4-fluorobenzyl)-1H-benzo[d]imidazol-2-yl)ethane-1,2-diamine trifluoroacetate], in assay [1], the EC50 was < 1 µM. Also, at Son of Sevenless (SOS), the Ki was 0.5 to 1 µM.

Regarding `Fc1ccc(CN2C3=NCCCN3c3cc(Cl)ccc32)cc1Cl` [Example 214, 7-chloro-10-(3-chloro-4-fluorobenzyl)-2,3,4,10-tetrahydrobenzo[4,5]imidazo[1,2-a]pyrimidine], in assay [1], the EC50 was in the range of 30 to 100 µM. Moreover, the Ki at Son of Sevenless (SOS) was > 5 µM.
